From ChEMBL document CHEMBL3301361, “Experimental in vitro DMPK and physicochemical data on a set of publicly disclosed compounds”
≈ marks a conversion by molar mass, not a printed value.

How the values were obtained:
[1] = in vitro; settings: human
[2] = in vitro; settings: Beagle, dog, plasma
[3] = in vitro; settings: SD, HW or BN, rat, plasma
[4] = in vitro; settings: human, hepatocytes
[5] = physchem; settings: octan-1-ol/water
[6] = in vitro; settings: human, plasma
[7] = physchem
[8] = in vitro; settings: hepatocytes
[9] = physchem; settings: pH 7.4 buffer

| microsomal CLint ([1]; liver microsomes) [µL/min/mg] | fraction unbound at 5 h [2] | fraction unbound at 5 h [3] | hepatocyte CLint [4] [µL/min/1e6 cells] | logD ([5]; pH 7.4, LogD7.4) | fraction unbound at 5 h ([6]; PPB) | pKa [7] | hepatocyte CLint [8] [µL/min/1e6 cells] | solubility thermodynamic [9] [µM] | microsomal CLint ([1]; microsomes) [µL/min/mg] | Compound | fraction unbound at 5 h [6] | logD ([5]; pH 7.4) |
| --- | --- | --- | --- | --- | --- | --- | --- | --- | --- | --- | --- | --- |
| – | 0.0343 | 0.114 | < 3 | 0.33 | 0.0067 | – | – | – | – | O=C(O)COc1ccc(Cl)cc1CN1CCN(S(=O)(=O)Cc2ccccc2)CC1 | – | – |
| < 3 | 0.0358 | 0.035 | < 3 | 0.05 | 0.0139 | – | < 3 | – | – | N#Cc1cccc(-c2cc(C(F)(F)F)ccc2OCC(=O)O)c1 | – | – |
| – | 0.535 | – | – | -0.49 | 0.557 | 9.5 | – | – | – | N#Cc1ccc(C(F)(F)F)nc1O[C@H](CCN)c1ccno1 | – | – |
| 132 | 0.176 | 0.0988 | 16.6 | 2.8 | 0.0447 | – | > 150 | – | – | CCCc1nn(C)c2c(=O)[nH]c(-c3cc(S(=O)(=O)N4CCN(C)CC4)ccc3OCC)nc12 | – | – |
| 7 | 0.529 | 0.166 | – | – | 0.208 | – | < 3 | – | – | Cc1ccc(S(=O)(=O)Nc2c(C(=O)N[C@@H](C)C(C)(C)C)c(C)nn2C2CCOCC2)cc1 | – | – |
| – | 0.0366 | 0.0175 | – | 0.91 | 0.0274 | – | 9.12 | – | – | Cc1cn([C@H]2CCCN([C@H](CC(C)C)c3ccc(C(=O)O)c(Oc4cccc(Cl)c4)c3)C2)c(=O)[nH]c1=O | – | – |
| – | 0.0268 | 0.0149 | – | 1.09 | 0.0287 | – | 49 | – | – | Cc1cn([C@H]2CCCN([C@H](CC(C)(C)C)c3ccc(C(=O)O)c(Oc4cccc(Br)c4)c3)C2)c(=O)[nH]c1=O | – | – |
| – | 0.0274 | – | – | 2.21 | 0.016 | – | 61 | – | 8.28 | C[C@H](CO)Nc1nc(SCc2ccco2)nc2[nH]c(=O)sc12 | – | – |
| 4 | 0.0219 | – | 19.4 | 2.86 | 0.0029 | – | < 3 | 53.7 (≈ 18.7 µg/mL) | – | C[C@H](CO)Nc1nc(SCc2ccccc2)nc2[nH]c(=O)sc12 | – | – |
| – | 0.183 | 0.151 | – | – | – | – | 12 | – | 26 | CCOc1cc2ncc(C(N)=O)c(Nc3ccc(C)cc3F)c2cc1N1CCN(C)CC1 | – | – |
| – | 0.0854 | 0.0191 | 19.1 | – | 0.0477 | – | – | – | – | COc1ccc(CCN2C(=O)N(NS(C)(=O)=O)C[C@@H]2c2ccc(OC)cc2)cc1 | – | – |
| – | 0.089 | 0.0568 | 21.9 | – | 0.0633 | – | – | – | – | COc1ccc(CCN2C(=O)N(NS(C)(=O)=O)C[C@H]2c2ccc(OC)cc2)cc1 | – | – |
| – | 0.788 | 0.711 | – | – | – | 9.45 | – | – | – | CCCC(=O)Nc1ccc(OCC(O)CNC(C)C)c(C(C)=O)c1 (stereo not given) [ACEBUTOLOL] | – | – |
| < 3 | 0.0084 | – | 12.3 | -0.04 | 0.0061 | – | – | – | – | COc1cc(-n2cnc3cc(-c4ccc(Cl)cc4)sc3c2=O)ccc1OC[C@H](OP(=O)(O)O)C1CC1 [BMS-830216] | – | – |
| – | 0.535 | – | – | 1.75 | 0.443 | – | > 150 | – | 20.9 | C#CC[C@@H](C(=O)N[C@H](/C=C/C(=O)OCC)C[C@@H]1CCNC1=O)n1cccc(NC(=O)c2cc(C)on2)c1=O [IMOCITRELVIR] | – | – |
| – | 0.0146 | – | 10.5 | – | – | – | 9.01 | 891 (≈ 382 µg/mL) | 17.8 | CCCCC1=NC2(CCCC2)C(=O)N1Cc1ccc(-c2ccccc2-c2nnn[nH]2)cc1 [IRBESARTAN] | – | – |
| 85 | 0.0108 | 0.0077 | – | – | 0.009 | – | 75 | – | – | CCOC(=O)C1=C(C)NC(C)=C(C(=O)OC)C1c1cccc([N+](=O)[O-])c1 (stereo not given) [NITRENDIPINE] | – | – |

Further lines, the molecule ahead of its results:

| Compound | microsomal CLint ([1]; liver microsomes) [µL/min/mg] | fraction unbound at 5 h [2] | fraction unbound at 5 h [3] | hepatocyte CLint [4] [µL/min/1e6 cells] | logD ([5]; pH 7.4, LogD7.4) | fraction unbound at 5 h ([6]; PPB) | pKa [7] | hepatocyte CLint [8] [µL/min/1e6 cells] | solubility thermodynamic [9] [µM] | microsomal CLint ([1]; microsomes) [µL/min/mg] | fraction unbound at 5 h [6] | logD ([5]; pH 7.4) |
| --- | --- | --- | --- | --- | --- | --- | --- | --- | --- | --- | --- | --- |
| CCCc1nc2c(C)cc(-c3nc4ccccc4n3C)cc2n1Cc1ccc(-c2ccccc2C(=O)O)cc1 | < 3 | 0.0175 | 0.0038 | 3.98 | 2.21 | 0.0077 | – | – | – | – | – | – |
| CC(C)(N)C(=O)N[C@H](COCc1ccc(F)cc1F)C(=O)N1CCC2=NN(CC(F)(F)F)C(=O)[C@]2(Cc2ccccn2)C1 | – | 0.454 | 0.511 | 15.5 | – | – | – | – | – | – | – | – |
| COc1ccnc(NC2CCN(C(=O)c3ccc(C#N)cc3)CC2)c1 | – | 0.0532 | – | – | 1.73 | – | 7.1 | – | – | – | – | – |
| O=C(O)COc1ccc(Cl)cc1CN1CCN(S(=O)(=O)c2ccc(F)cc2)CC1 | – | 0.0768 | 0.089 | < 3 | 0.99 | 0.0101 | – | < 3 | – | – | – | – |
| C[C@H]1CN(Cc2cc(Cl)ccc2OCC(=O)O)CCN1C(=O)Cc1ccc(Cl)cc1 | < 3 | 0.0262 | 0.0383 | < 3 | – | – | – | < 3 | – | – | 0.0187 | – |
| CCN(C(=O)c1cnn(-c2ccccc2)c1NS(=O)(=O)c1ccc(-c2cnco2)cc1)C1CCCCC1 | 137 | 0.0025 | 0.0057 | 9.5 | 1.46 | 0.013 | – | 35 | 204 (≈ 106 µg/mL) | – | – | – |
| Cc1c(OC2CCN(CC3CCN([C@@](C)(Cc4ccc(F)cc4)C(=O)O)CC3)CC2)ccc(Cl)c1Cl | < 3 | 0.0568 | 0.0752 | – | – | – | – | < 3 | – | – | – | – |
| Cc1cn([C@H]2CCCN([C@H](C)c3ccc(C(=O)O)c(Oc4cccc(Cl)c4)c3)C2)c(=O)[nH]c1=O | – | 0.101 | 0.0293 | – | -0.3 | 0.0156 | – | 3.39 | – | – | – | – |
| CC(C)(C)NC(=O)NCCN1CC(NC(=O)c2cc(Cl)cc(Cl)c2)C1 | – | 0.0784 | 0.101 | 3.31 | – | 0.0928 | – | – | – | – | – | – |
| CC(C)(C)NC(=O)NCCN1CCN(CC(=O)NC23CC4CC(CC(C4)C2)C3)CC1 | – | 0.24 | – | 33.9 | – | – | – | – | – | – | – | – |
| CC[C@H](CO)Nc1nc(SCc2ccccc2)nc2[nH]c(=O)sc12 | – | 0.0053 | – | 10 | – | 0.0016 | – | – | – | – | – | – |
| C[C@H](CO)Nc1[nH]c(SCc2ccccc2F)nc2nc(=O)sc1-2 | 3 | 0.0171 | – | 30.1 | 3 | – | – | 28 | 8.1 (≈ 2.97 µg/mL) | – | – | – |
| CCN(CC)CCN1C(=O)[C@@](O)(c2ccccc2Cl)c2c1cc(C(N)=O)cc2C(F)(F)F | – | 0.19 | 0.212 | 11.5 | – | – | – | 56.2 | – | 93.3 | 0.289 | 2.4 |
| CCN(CC)CCN1C(=O)C(O)(c2ccccc2Cl)c2c1cc(C(N)=O)cc2C(F)(F)F (stereo not given) | – | 0.212 | – | 15.1 | – | – | – | – | – | – | – | – |
| Cc1n[nH]c(C)c1Cc1sc2c(c1C(=O)N1C[C@H](O)CO1)c(=O)n(C)c(=O)n2CC(C)C | 4 | 0.656 | – | – | 1.07 | 0.489 | 3.4 | – | – | – | – | – |
| O=C(NCC12CC3CC(CC(C3)C1)C2)c1cc(OC2CCNCC2)ccc1Cl | – | 0.0768 | – | – | 1.83 | – | 9 | – | – | 28 | – | – |
| O=C(NCC12CC3CC(CC(C3)C1)C2)c1cc(N2CCNCC2)ncc1Cl | 10 | 0.0736 | – | – | – | – | 8.5 | – | – | – | – | – |
| CCC(=O)O[C@]1(C(=O)SCF)[C@H](C)C[C@H]2[C@@H]3C[C@H](F)C4=CC(=O)C=C[C@]4(C)[C@@]3(F)[C@@H](O)C[C@@]21C [FLUTICASONE PROPIONATE] | – | 0.0116 | 0.0153 | > 150 | – | 0.0191 | – | 107 | – | – | – | – |
| CC(C)(N)C(=O)N[C@H](COCc1ccccc1)C(=O)N1CCC2(CC1)CN(S(C)(=O)=O)c1ccccc12 [IBUTAMOREN] | – | 0.212 | 0.253 | 14.4 | 1.4 | 0.232 | – | – | – | – | – | – |
| CC(C)Oc1ccc2c(=O)c(-c3ccccc3)coc2c1 [IPRIFLAVONE] | – | 0.0051 | 0.0056 | – | 4.07 | 0.0053 | – | 110 | 2.8 (≈ 0.785 µg/mL) | – | – | – |
| CC[C@H](C)C(=O)O[C@H]1C[C@H](O)C=C2C=C[C@H](C)[C@H](CC[C@@H](O)C[C@@H](O)CC(=O)O)[C@H]21 [PRAVASTATIN] | – | 0.608 | 0.349 | < 3 | -0.76 | – | – | 27 | – | < 3 | – | – |
| CC1=C(C)C(=O)C(C(CCCCCC(=O)O)c2ccccc2)=C(C)C1=O (stereo not given) [SERATRODAST] | – | 0.02 | – | – | 2.48 | – | – | 85 | – | 3 | – | – |
| Cc1ccc(C(=O)c2ccc(CC(=O)O)n2C)cc1 [TOLMETIN] | – | 0.0477 | 0.0287 | – | -1.02 | 0.0028 | – | 7.33 | – | 4 | – | – |
| CC(C)(C)NC(=O)c1ccc(Oc2cc(F)c(CC(=O)O)cc2Cl)c(NS(=O)(=O)c2ccc(C3CC3)cc2Cl)c1 [VIDUPIPRANT] | < 3 | 0.0039 | – | 6 | – | 0.0015 | – | 6 | 851 (≈ 519 µg/mL) | – | – | – |
